Results taken from patent publication US6596738B1, “Heterocyclic compound, composition and method for inhibiting adenosine deaminase” (Fujisawa Pharmaceutical Co., Ltd., priority 1999, dated 2003).
One block for each molecule: values may come before it.

Key:
[1] = biological target: T1, Human ADA (Homo sapiens, UniProt P00813); assay: Adenosine deaminase (ADA) enzyme assay [2], IC50 of Vmax inhibition; type: biochemical
T1 construct: made in house; host or cells: ADA-deficient bacterial strain
T1 sequence (P00813 1-363): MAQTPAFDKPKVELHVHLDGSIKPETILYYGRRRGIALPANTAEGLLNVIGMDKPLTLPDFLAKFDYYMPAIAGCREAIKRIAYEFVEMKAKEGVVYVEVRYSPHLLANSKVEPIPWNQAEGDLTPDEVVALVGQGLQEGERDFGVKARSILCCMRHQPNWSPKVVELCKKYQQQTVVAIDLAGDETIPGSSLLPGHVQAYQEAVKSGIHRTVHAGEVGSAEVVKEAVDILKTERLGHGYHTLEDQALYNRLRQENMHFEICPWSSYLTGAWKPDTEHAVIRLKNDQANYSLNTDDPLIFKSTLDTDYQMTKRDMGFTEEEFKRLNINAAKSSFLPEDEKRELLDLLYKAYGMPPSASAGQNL
Method: Human ADA was expressed and purified from ADA-deficient bacterial strain. Reaction mixture of a total volume of 200 μl contained 0.16 μg/ml of ADA, 0.1 mM of adenosine and test compound in 10 mM phosphate buffer saline (pH 7.4). The reaction was started by addition of ADA to a mixture of adenosine and test compound.

[2] = biological target: T1, Human ADA; assay: Adenosine deaminase (ADA) enzyme assay [1], Ki by Dixon plot; type: biochemical; settings: 25 mU/ml ADA, varying concentrations of adenosine, 10 mM phosphate buffer saline pH 7.4, room temperature, A265 for 5 minutes
Method: The reaction velocity (V) is measured by a change in absorbance at 265 nm (A265) resulting from the deamination of adenosine. Human ADA was expressed and purified from ADA-deficient bacterial strain. Reaction mixtures in a total volume of 200 μl contained 25 mU/ml of ADA and varying concentrations of adenosine and test compounds in 10 mM phosphate buffer saline (pH 7.4). The reaction was started by addition of ADA to a mixture of adenosine and test compound. The reaction was followed at room temperature by recording decrease in A265 for 5 minutes in SPECTRAmax 250 (Molecular Devices, USA) to automatically calculate Vmax. The inhibition constant (Ki) values of test compounds were determined by Dixon plot.

IC50 [1]: 27 nM
SMILES: C[C@H](O)[C@@H](CCc1cccc2ccccc12)n1cncn1 [Compound A, 1-[(2S,3R)-2-Hydroxy-5-(1-naphthyl)-3-pentyl]-1,2,4-triazole]

melting point: 127 to 130 °C
SMILES: NC(=O)c1cn([C@@H](CO)CCn2ccc3ccccc32)cn1 [Example 2, 1-[(R)-1-hydroxy-4-(1-indolyl)-2-butyl]imidazole-4-carboxamide]

Ki [2]: 16 nM
SMILES: NC(=O)c1cn([C@@H](CO)CCn2ccc3ccc(NC(=O)CCCc4ccccc4)cc32)cn1 [Example 6-(2), 1-[(R)-1-Hydroxy-4-(6-(4-phenylbutyrylamino)indol-1-yl)-2-butyl]imidazole-4-carboxamide]
